Read-outs that look alike come from different tables or passages of the source. Ends that are not written are not given here.
System: MDR-EAEC isolates
Conditions: for MBC / MIC: 37°C
Experimental: Initially, characterization of Lfcin (17–30) was performed by determining its minimum inhibitory concentration (MIC), minimum bactericidal concentration (MBC), in vitro stability assays (high-end temperatures, the physiological concentration of cationic salts and proteases), and in vitro safety assays (sheep erythrocyte hemolysis and secondary cell line cytotoxicity) (Supplementary Files S1–S3). The membrane permeabilization effect of Lfcin (17–30) was assessed by flow cytometry, whereas outer and inner membrane permeability of MDR-EAEC strains treated with 1 × and 2 × MIC levels of Lfcin (17–30) was carried out based on the nitrocefin activity as well as the release of cytoplasmic β-galactosidase activity, respectively (Supplementary File S4). Further, Lfcin (17–30) was evaluated for its antibacterial activity against beneficial lactobacilli (L. acidophilus MTCC 10307 and L. rhamnosus MTCC 1408) (Supplementary File S5).
To explore the utility of Lfcin (17-30) as a therapeutic molecule, in vitro stability was evaluated by exposing it to high-end temperatures, proteases as well as the physiological concentration of salts. In brief, the effect of temperature was investigated by incubating Lfcin (17-30) at 70 °C and 90 °C for 5, 15, and 30 min followed by measuring the MIC value. The effect of proteases (trypsin and proteinase-K) on the antimicrobial activity of Lfcin (17-30) [Protease: AMP- 1:100 (w/w)] was investigated by incubating with the respective protease at 37 °C for 30 sec, 2, 5, 15 and 30 min, followed by inactivating the enzyme at 90 °C for 10 min and measuring the MIC value. The stability of Lfcin (17-30) in the presence of high salt concentrations (150 mM and 2 mM MgCl2) was estimated in regular MH broth. Appropriate controls were included in each experiment.

[1] = proteinase-K 1:100 (w/w), 2 min, MDR 3
[2] = proteinase-K 1:100 (w/w), 5 min, MDR 1
[3] = proteinase-K 1:100 (w/w), 5 min, MDR 2
[4] = proteinase-K 1:100 (w/w), 5 min, MDR 3
[5] = proteinase-K 1:100 (w/w), 15 min, MDR 1
[6] = proteinase-K 1:100 (w/w), 15 min, MDR 2
[7] = proteinase-K 1:100 (w/w), 15 min, MDR 3
[8] = proteinase-K 1:100 (w/w), 30 min, MDR 1
[9] = proteinase-K 1:100 (w/w), 30 min, MDR 2
[10] = proteinase-K 1:100 (w/w), 30 min, MDR 3
[11] = trypsin 1:100 (w/w), 2 min, MDR 1
[12] = trypsin 1:100 (w/w), 2 min, MDR 2
[13] = trypsin 1:100 (w/w), 2 min, MDR 3
[14] = trypsin 1:100 (w/w), 5 min, MDR 1
[15] = trypsin 1:100 (w/w), 5 min, MDR 2
[16] = trypsin 1:100 (w/w), 5 min, MDR 3
[17] = trypsin 1:100 (w/w), 15 min, MDR 1
[18] = trypsin 1:100 (w/w), 15 min, MDR 2
[19] = trypsin 1:100 (w/w), 15 min, MDR 3
[20] = trypsin 1:100 (w/w), 30 min, MDR 1
[21] = trypsin 1:100 (w/w), 30 min, MDR 2
[22] = trypsin 1:100 (w/w), 30 min, MDR 3

FKCRRWQWRMKKLG [Lfcin (17–30)]
MBC [1]: 4.0 µg/mL
MIC [1]: 4.0 µg/mL
MBC [2]: 16.0 µg/mL
MIC [2]: 8.0 µg/mL
MBC [3]: 32.0 µg/mL
MIC [3]: 8.0 µg/mL
MBC [4]: 4.0 µg/mL
MIC [4]: 4.0 µg/mL
MBC [5]: 16.0 µg/mL
MIC [5]: 8.0 µg/mL
MBC [6]: 32.0 µg/mL
MIC [6]: 8.0 µg/mL
MBC [7]: 4.0 µg/mL
MIC [7]: 4.0 µg/mL
MBC [8]: 8.0 µg/mL
MIC [8]: 8.0 µg/mL
MBC [9]: 16.0 µg/mL
MIC [9]: 8.0 µg/mL
MBC [10]: 4.0 µg/mL
MIC [10]: 2.0 µg/mL
MIC (proteinase-K, protease:AMP 1:100 (w/w), 0.5 min, enzyme inactivated 90°C 10 min, MDR 1): 8.0 µg/mL
MIC (proteinase-K, protease:AMP 1:100 (w/w), 0.5 min, enzyme inactivated 90°C 10 min, MDR 2): 8.0 µg/mL
MIC (proteinase-K, protease:AMP 1:100 (w/w), 0.5 min, enzyme inactivated 90°C 10 min, MDR 3): 4.0 µg/mL
stability to protease (proteinase-K) (proteinase-K, judged by MIC and MBC): stable
MBC (trypsin 1:100 (w/w), 0.5 min, MDR 1): 16.0 µg/mL
MBC (trypsin 1:100 (w/w), 0.5 min, MDR 2): 16.0 µg/mL
MBC (trypsin 1:100 (w/w), 0.5 min, MDR 3): 16.0 µg/mL
MBC [11]: 16.0 µg/mL
MIC [11]: 16.0 µg/mL
MBC [12]: 16.0 µg/mL
MIC [12]: 16.0 µg/mL
MBC [13]: 16.0 µg/mL
MIC [13]: 16.0 µg/mL
MBC [14]: 16.0 µg/mL
MIC [14]: 16.0 µg/mL
MBC [15]: 16.0 µg/mL
MIC [15]: 16.0 µg/mL
MBC [16]: 16.0 µg/mL
MIC [16]: 16.0 µg/mL
MBC [17]: 16.0 µg/mL
MIC [17]: 16.0 µg/mL
MBC [18]: 16.0 µg/mL
MIC [18]: 16.0 µg/mL
MBC [19]: 32.0 µg/mL
MIC [19]: 16.0 µg/mL
MBC [20]: 16.0 µg/mL
MIC [20]: 16.0 µg/mL
MBC [21]: 16.0 µg/mL
MIC [21]: 16.0 µg/mL
MBC [22]: 32.0 µg/mL
MIC [22]: 16.0 µg/mL
MIC (trypsin, protease:AMP 1:100 (w/w), 0.5 min, enzyme inactivated 90°C 10 min, MDR 1): 16.0 µg/mL
MIC (trypsin, protease:AMP 1:100 (w/w), 0.5 min, enzyme inactivated 90°C 10 min, MDR 2): 16.0 µg/mL
MIC (trypsin, protease:AMP 1:100 (w/w), 0.5 min, enzyme inactivated 90°C 10 min, MDR 3): 16.0 µg/mL
stability to protease (trypsin) (trypsin, judged by MIC and MBC): stable

— PMC7531601, “Exploiting Lactoferricin (17–30) as a Potential Antimicrobial and Antibiofilm Candidate Against Multi-Drug-Resistant Enteroaggregative Escherichia coli” (Frontiers in Microbiology, 2020)
